Results from patent publication US9932376B2, “Analogues of temporin-SHa and uses thereof” (UNIVERSITE PIERRE ET MARIE CURIE (PARIS 6), priority 2013, dated 2018).
“Also recorded” adds a separate entry of the source. Ends that are not written are not given here.

What was measured:
[1] = test system: rat erythrocytes; test: Hemolytic test; format: cell-based; settings: for hemolytic activity (in words): rat erythrocytes, result in words
Method: (§1) The hemolytic activity of the antimicrobial peptides was assessed using rat erythrocytes. Red blood cell hemolysis is manifested by the release into the reaction medium of hemoglobin, the concentration of which is determined spectrophotometrically at 450 nm.
(§2) Red blood cells were separated from plasma and white blood cells by centrifugation of blood (900×g, 10 min). The pellet containing red blood cells was washed three times with PBS buffer, pH 7.4. After counting on a Malassez cell, a stock solution of 4×10^8 red blood cells/mL was prepared in the same buffer. A series of concentrations of the peptides to be tested was prepared (2 to 400 μM).
(§3) The test was carried out as follows: 50 μL of the different peptide concentrations were added to 50 μL of the red blood cell suspension. After 1 hr of incubation at 37° C. followed by centrifugation (12,000×g, 15 sec), absorbance of the supernatant was measured at 450 nm. The negative control for this test (0% hemolysis) contained […] in place of the peptide solution. The positive control (100% hemolysis) contained 50 μL of 0.1% Triton X-100 in place of the peptide solution.
(§4) The LC50 value obtained is the mean of three experiments carried out in triplicate and corresponds to the peptide concentration inducing hemolysis of 50% of the cells.

[2] = Hemolytic test; format: cell-based, rat; settings: rat erythrocytes (washed red blood cells), pH 7.4, rat erythrocytes, 1 hr at 37° C.; for CC50 at 1 hr: read-out: LC50 (hemolytic activity), unit inferred
Method: as §1, §2, §3, §4

[3] = test system: THP-1 monocyte-derived macrophages; test: Cytotoxicity test on THP-1 human monocytes-derived macrophages; format: cell-based; settings: result in words
Method: The viability of macrophages was ascertained using a trypan blue-based microassay. THP-1 cells from a culture suspension in mid-log phase of growth were plated at a density of 5×10^5 cells/mL in 96-well plates (100 μL/well, i.e., 5×10^4 cells/well) and differentiated as described above. After incubation for 72 hrs at 37° C. with 5% CO2, in the presence of peptide (60 μM to 7.5 μM, final concentrations), adherent macrophages were washed once with prewarmed RPMI 1640 medium and stained for 5 min, with 100 μL of trypan blue 2-fold diluted in RPMI 1640 medium. Wells were then washed twice with 100 μL of RPMI 1640 medium. Living white cells were microscopically counted in three focuses per well using a reticulated ocular.
The viability index (VI) was calculated for each peptide concentration using the following formula: VI=[N meanpeptide×100]/N meannegative control.
where N mean is the mean number of viable parasites. The negative control (100% growth) contained 20 μL of RPMI medium in place of the peptide solution.
The LC50 value, which corresponds to the peptide concentration inducing lysis of 50% of the cells, was determined from the viability indexes. Tests were carried out in sextuplicate for each peptide concentration and at least two independent experiments were performed to determine the LC50 value.

[4] = test system: Leishmania infantum axenic amastigote; settings: read-out: IC50 against the axenic amastigote form; cited from earlier work
[5] = test system: Leishmania infantum promastigote; settings: read-out: IC50 against the promastigote form; cited from earlier work
[6] = test system: yeasts; test: Tests of antifungal activity (growth inhibition in YPD broth medium, MIC); format: cell-based
Method: Three yeast strains were used: Saccharomyces cerevisiae, Candida albicans (ATCC 90028), Candida parapsilosis (ATCC 22019). These strains were first grown on YPD agar for a minimum of 48 hrs. Yeast suspensions were then prepared, exactly as for bacteria, and adjusted to 10^6 cfu/mL in YPD broth medium.
The antifungal activity test corresponds to the growth inhibition test in broth medium used for the bacteria (see above) in which MH medium was replaced by YPD medium. Fungal strains were incubated at 30° C.

[7] = test system: Gram-positive and Gram-negative bacterial strains; format: cell-based
Description: The following strains were used for the antibacterial activity tests: Escherichia coli (ATCC 25922 and ML-35p), Staphylococcus aureus (ATCC 25923 and ST1065), Enterococcus faecalis (ATCC 29212), Pseudomonas aeruginosa (ATCC 27853), Streptococcus pyogenes (ATCC 19615), Listeria ivanovii, Salmonella enterica (serotype Enteritidis), Acinetobacter baumannii (ATCC 19606) and Klebsiella pneumoniae (ATCC 13883). Two antibiotic-resistant strains were also used (S. aureus ATCC 43300 and ATCC BAA-44).
For each strain, a standard inoculum of approximately 10^6 bacteria/mL (exponential growth phase) was prepared. To this end, a colony isolated on LB agar previously inoculated with one of the strains was cultured in 4 mL of LB broth medium, except for S. pyogenes and L. ivanovii, which were grown in BHI (Brain Heart Infusion) from a colony isolated on BHI agar. Liquid cultures were then incubated for 2 to 3 hrs at 37° C. with shaking for the bacteria to reach exponential growth phase. […]
The minimum inhibitory concentration (MIC) of each peptide was determined by a test of growth inhibition in broth medium. […] Bacterial growth was determined by measuring OD at 630 nm (turbidity) on a plate reader. […]

[8] = test system: Leishmania infantum promastigotes (strain MHOM/MA/67/ITMAP-263); test: Tests of anti-leishmanial activity on promastigotes expressing the luciferase; format: cell-based; settings: result in words
Method: Leishmanicidal activity of peptides was evaluated on the promastigote form of Leishmania infantum (strain MHOM/MA/67/ITMAP-263), responsible for visceral leishmaniosis.
Promastigotes were maintained at 26° C. by one or two weekly passages, depending on the number of parasites in the inoculum, in SDM 79 medium supplemented with 10 to 20% decomplemented fetal calf serum and […] porcine hemin and in the presence of 100 U/mL penicillin and 100 μg/mL streptomycin (Brun et al., 1979). Starting from an inoculum of 10^5 cells/mL in logarithmic growth phase, the promastigotes reached a cell density of 1 to 2×10^8 parasites/mL in stationary phase after 5 days of culture in 25 cm^2 culture flasks. Cell densities were determined by flow cytometry in the presence of propidium iodide on a FAC Scan cytometer (Excalibur, Becton Dickinson, Ivry, France).
The tests of anti-leishmanial activity were carried out with a parasite line expressing the luciferase. […]
After 72 hrs of incubation at 26° C., 50 μL of Steady-Glo lysis buffer (Promega) were added to each well. […] Emitted luminescence was measured with a luminescence plate reader (Victor, PerkinElmer). […] The percentage growth was calculated according to the following formula: % growth=[(L mean−bgd)peptide×100]/(L mean−bgd)negative control
where L mean: mean luminescence and bgd: background corresponding to the luminescence emitted by the culture medium. […]

Substance	hemolytic activity (in words) [1]	CC50 at 1 hr [2] [µM]	also measured
FLKGIVGMLGKLW-NH2 [[K^3,W^13]temporin-SHa, F-L-K-G-I-V-G-M-L-G-K-L-W]	lower hemolytic activity; also recorded: lesser haemolytic		
FLKGIVGKLGKLL-NH2 [[K^3, K^8,L^13]temporin-SHa, F-L-K-G-I-V-G-K-L-G-K-L-L]	no hemolytic activity	> 500	
FLKGIKGMLGKLF-NH2 [[K^3,K^6]temporin-SHa, F-L-K-G-I-K-G-M-L-G-K-L-F]	no hemolytic activity	> 500	
FLKGIVGMLGKLL-NH2 [[K^3,L^13]temporin-SHa, F-L-K-G-I-V-G-M-L-G-K-L-L]	lower hemolytic activity; also recorded: lesser haemolytic		cytotoxicity against the host cell (macrophage) (in words) [3]: reduced cytotoxicity; fold lower hemolytic activity than [K^3]temporin-SHa ([1]; relative to [K^3]temporin-SHa): 2 fold
FLSGIVGMLGKLF [temporin-SHa, F-L-S-G-I-V-G-M-L-G-K-L-F]			IC50 [4]: 22.8 µM; IC50 [5]: 18.1 µM
FLKGIVGMLGKLF-NH2 [[K^3]temporin-SHa]			MIC [6]: 3 to 6 µM; MIC ([7]; Gram-positive (including antibiotic-resistant S. aureus strains) and Gram-negative bacterial strains of clinical interest): 3 to 6 µM; antimicrobial activity (in words) ([7]; bacteria and yeasts tested, result in words): more potent
F-L-K-G-I-K-G-M-L-G-K-L-L (FLKGIKGMLGKLL-NH2) [[K^3, K^6, L^13]temporin-SHa]			anti-leishmanial activity on L. infantum promastigotes (in words) [8]: approaches the cytotoxicity level of monocytes
KGIVGMLGKLF-NH2 [[K^3]temporin-SHa(3-13)]	devoid of hemolytic activity		HC50 at 1 hr ([2]; read-out: LC50 (hemolytic activity)): 618 µM
FLKGIVGKLGKLF-NH2 [[K^3,K^8]temporin-SHa, F-L-K-G-I-V-G-K-L-G-K-L-F]	no hemolytic activity	> 500	
